Reference: patent US11065244B2, “Methods of use of tetrahydroberberine (THB)” (DIGNITY HEALTH, priority 2010, dated 2021)

Assays:
SNc DA neurons = experiment: Perforated patch current-clamp recording of membrane potential and firing of dissociated SNc DA neurons, substance applied alone; assay type: cell-based, rat
Description: (§1) The protocol for preparation of single neurons from the rat SNc was approved by the Institutional Animal Care and Use Committee of the Barrow Neurological Institute. Single DA neurons were acutely dissociated from the SNc of 2-3-week-old Wistar rats following the protocol as previously described. Briefly, rats were anesthetized with isoflurane, and brain tissue was rapidly removed and immersed in cold (2-4° C.) dissection solution which contained: 136.7 mM NaCl, 5 mM KCl, 0.1 mM Na2HPO4, 0.2 mM KH2PO4, 9.84 mM HEPES, 16.6 mM D-glucose, 21.9 mM sucrose, pH 7.3, 330 mOsm, oxygenated with 100% O2 [8]. Three 400-μm coronal slices containing the SNc were cut using a vibrotome (Vibroslice 725M, WPI, Sarasota, Fla.). After cutting, slices were continuously bubbled with 95% O2-5% CO2 at room temperature (22±1° C.) for at least one hour in artificial cerebrospinal fluid (ACSF), which contained: 124 mM NaCl, 5 mM KCl, 24 mM NaHCO3, 1.3 mM MgSO4, 1.2 mM KH2PO4, 2.4 mM CaCl2, and 10 mM glucose, pH 7.4. Thereafter, slices were treated with pronase (1 mg per 6 ml) at 31° C. for 30 minutes in ACSF. The SNc was identified in a coronal slice using a stereo microscope with reference to the rat brain atlas, and was micro-punched out from slices using a well-polished needle. One punched piece was then transferred to a 35-mm culture dish filled with well-oxygenated standard extracellular solution, which contained: 150 mM NaCl, 5 mM KCl, 1 mM MgCl2, 2 mM CaCl2, 10 mM glucose 10, and 10 mM HEPES, pH 7.4 (with Tris-base). The punched piece was then dissociated mechanically using a fire-polished micro-Pasteur pipette under an inverted microscope (Olympus IX-70, Lake Success, N.Y.). The separated cells adhered to the bottom of the culture dish within 30 minutes. In the present study, we used only DA neurons that maintained their original morphological features of polygonal, large or medium somata with 2-4 thick primary dendritic processes were used.
Perforated patch whole-cell recording techniques were employed as previously described. Pipettes (3-5 MΩ) used for perforated patch recording were filled with intracellular recording solution containing 140 mM potassium gluconate, 10 mM KCl, 5 mM MgCl2, and 10 mM HEPES, pH 7.2 (with Tris-OH). The amphotericin B was freshly prepared to 200-240 μg/ml from a 40 mg/ml in DMSO stock. The liquid junction potential was 14 mV calculated using Clamplex 9.2 (Axon Instruments, Foster City, Calif.) and corrections were made for junction potentials post-hoc. After tight seal (>2 GΩ) formation, it usually took about 5-20 min to convert to perforated patch mode, and an access resistance of 20-60 MΩ was accepted to start the experiments. Series resistance was not compensated in this study. The data were filtered at 2 kHz, acquired at 10 kHz and digitized on-line (Digidata 1322 series A/D board, Axon Instruments, Foster City, Calif.). […] Drug application was performed using a computer-controlled “U-tube” system as previously described. All experiments were performed at room temperature (22±1° C.). To enable identification of single, dissociated SNc neurons after a patch-clamp recording session, the recording pipette was filled with a fluorescent dye (lucifer yellow CH, Sigma Chemical Co., St. Louis, Mo., 1.0 mg/ml in the recording electrode) in some experiments. After conversion from the perforated patch to the conventional whole-cell recording mode, the dye was ejected into the cytoplasm by a pulse (200 ms, 0.5 Hz) of hyperpolarizing current (1.0 nA) for 3 min. Labeled cells were visualized using epifluorescence microscopy. […]

[1] = target: T1, KATP channels in SNc DA neurons (Rattus norvegicus, UniProt P70673+Q09429); experiment: Perforated patch current-clamp recording of rotenone-opened KATP channels in dissociated SNc DA neurons; assay type: cell-based; conditions: for altered membrane potential in the presence of rotenone: FIG. 5C; for altered membrane potential (depolarization) on rotenone-opened KATP channels, analog comparison: 100 μM, 6 neurons, FIG. 4B
T1 construct: functional KATP channels natively expressed on midbrain dopamine neurons; from tissue; host or cells: acutely dissociated dopaminergic neurons of rat substantia nigra pars compacta
Description: as §1
Perforated patch whole-cell recording techniques were employed as previously described. Pipettes (3-5 MΩ) used for perforated patch recording were filled with intracellular recording solution containing 140 mM potassium gluconate, 10 mM KCl, 5 mM MgCl2, and 10 mM HEPES, pH 7.2 (with Tris-OH). The amphotericin B was freshly prepared to 200-240 μg/ml from a 40 mg/ml in DMSO stock. The liquid junction potential was 14 mV calculated using Clamplex 9.2 (Axon Instruments, Foster City, Calif.) and corrections were made for junction potentials post-hoc. After tight seal (>2 GΩ) formation, it usually took about 5-20 min to convert to perforated patch mode, and an access resistance of 20-60 MΩ was accepted to start the experiments. Series resistance was not compensated in this study. The data were filtered at 2 kHz, acquired at 10 kHz and digitized on-line (Digidata 1322 series A/D board, Axon Instruments, Foster City, Calif.). […] Drug application was performed using a computer-controlled “U-tube” system as previously described. All experiments were performed at room temperature (22±1° C.). To enable identification of single, dissociated SNc neurons after a patch-clamp recording session, the recording pipette was filled with a fluorescent dye (lucifer yellow CH, Sigma Chemical Co., St. Louis, Mo., 1.0 mg/ml in the recording electrode) in some experiments. After conversion from the perforated patch to the conventional whole-cell recording mode, the dye was ejected into the cytoplasm by a pulse (200 ms, 0.5 Hz) of hyperpolarizing current (1.0 nA) for 3 min. Labeled cells were visualized using epifluorescence microscopy.
Under physiological conditions, the KATP channels are mostly closed. However, in the acutely-dissociated single neurons from rat SNc, there is background opening of KATP channels. […]

neuronal KATP channels = target: T2, neuronal KATP channels (Rattus norvegicus, UniProt P70673+Q09429); experiment: Rotenone-induced outward current in voltage-clamp mode in the presence of the D2 receptor antagonist sulpiride; assay type: cell-based; conditions: VH −30 mV, 6 neurons
T2 construct: functional KATP channels natively expressed on midbrain dopamine neurons; from tissue; host or cells: acutely dissociated dopaminergic neurons of rat substantia nigra pars compacta
Description: as §1, with “In the present study, we used only DA neurons that maintained their original morphological features of polygonal, large or medium somata with 2-4 thick primary dendritic processes were used.” left out
Perforated patch whole-cell recording techniques were employed as previously described. […] The liquid junction potential was 14 mV calculated using Clamplex 9.2 (Axon Instruments, Foster City, Calif.) and corrections were made for junction potentials post-hoc. […]

[2] = test system: D2 receptor and dopamine-opened K+ channels; experiment: Dopamine-induced membrane potential hyperpolarization in dissociated SNc DA neurons; assay type: cell-based, rat
Description: All experiments were performed at room temperature (22±1° C.).

Kir6.2/SUR1 = target: T3, Kir6.2/SUR1 (Homo sapiens, UniProt Q09428+Q14654); experiment: Whole-cell voltage-clamp currents of KATP channel subtypes, pancreatic type; assay type: cell-based; conditions: 100 μM perfused for 30 sec; currents at −100 mV; n=4
T3 construct: expressed in transfected cells
Description: (§2) Using whole-cell recordings in voltage-clamp mode, Command pulse protocol was set by the series test pulses with 100 ms duration that were applied between −100 and +50 mV in 10 mV steps from a holding potential of 0 mV (Top traces in FIG. 11, plots A-C). Representative effects of Ipt (100 μM perfused for 30 sec) on whole-cell current traces recorded from a cell expressed Kir6.2/SUR1 (A), Kir6.2/SUR2A (B) or Kir6.1/SUR2B (C). FIG. 11, plot D summarizes data for currents measured at −100 mV from A-C. Values are means±S.E.M. (n=4). *P<0.05, **P<0.01 vs. control.

Kir6.1/SUR2B = target: T4, Kir6.1/SUR2B (Homo sapiens, UniProt O60706+Q15842); experiment: Whole-cell voltage-clamp currents of KATP channel subtypes, vesicle type; assay type: cell-based; conditions: 100 μM perfused for 30 sec; currents at −100 mV; n=4
T4 construct: expressed in transfected cells
Description: as §2

[3] = test system: cardiac KATP channels (Kir6.1SUR2A); conditions: relevant low concentration; cited from earlier work
rat pancreatic islets = experiment: Insulin release from rat pancreatic islets; assay type: cell-based; conditions: 100 μM; 5.5 mM glucose external; from 22.5±1.2
Description: With 5.5 mM glucose in the external solution, basal insulin secretion was measured. […] Bath application of 100 μM THB increased insulin secretion from 22.5±1.2 to 39.4±1.5 pg/islet/min (FIG. 5; P<0.01; 6 cells) and 100 μM Ipt increased insulin secretion from 22.5±1.2 to 34.5±1.8 pg/islet/min (FIG. 11; P<0.05; 7 cells).

[4] = target: T5, pancreatic β-cell KATP channels (Rattus norvegicus, UniProt P70673+Q09429); experiment: Whole-cell KATP currents induced by ramp pulses in rat pancreatic β-cells; assay type: cell-based; conditions: 100 μM bath application; external glucose 5.5 mM; ramp −90 to −50 mV
T5 construct: Single Channel Currents of KATP Channels in Rat Pancreatic β-Cells; from tissue; host or cells: rat pancreatic β-cells
Description: To determine whether or not THB and Ipt can block pancreatic β-cell KATP channels, whole-cell currents induced by repetitive ramp pulses from −90 to −50 mV (at 0.2 Hz) were recorded in voltage-clamp mode (external glucose=5.5 mM).

[5] = target: neuronal type and pancreatic type of KATP channels (Kir6.2SUR1) (Homo sapiens, UniProt Q09428+Q14654); conditions: relatively high concentrations; cited from earlier work
Kir6.2/SUR2A = target: T6, Kir6.2/SUR2A (Homo sapiens, UniProt O60706+Q14654); experiment: Whole-cell voltage-clamp currents of KATP channel subtypes, cardiac type; assay type: cell-based; conditions: 100 μM perfused for 30 sec; currents at −100 mV; n=4
T6 construct: expressed in transfected cells
Description: as §2

Kir6.2SUR1 KATP channels = target: T7, Kir6.2SUR1 KATP channels (Homo sapiens, UniProt Q09428+Q14654); experiment: Patch-clamp cell attached single-channel recording of transfected Kir6.2SUR1 channels in HEK-293 cells; assay type: cell-based; conditions: 100 μM; control as 1; THB 6 patches, Ipt 8 patches
T7 construct: expressed in transfected cells; host or cells: HEK-293
Description: In β-cells, the dominant subtype of KATP is the Kir 6.2SUR1 subtype, as earlier described. Cells transiently transfected with the KATP Kir 6.2SUR1 channel subtype were evaluated for membrane potential and action potential firing using cell-attached recording in the presence or absence of 100 μm THB (FIG. 8A).
To further determine the effects of THB and Ipt on pancreatic β-cell-type KATP channels, the inventor examined the effects of THB or Ipt on the transfected Kir6.2SUR1 KATP channels in HEK-293 cells.

[6] = target: vascular KATP channels (Kir6.1SRU2B) (Homo sapiens, UniProt O60706+Q15842); conditions: relevant low concentration; cited from earlier work
[7] = target: T5, pancreatic β-cell KATP channels; experiment: Inside-out patch single channel recording in rat pancreatic β-cells, ATP free solution; assay type: cell-based; conditions: bath-applied

T1 sequence (P70673 whole entry): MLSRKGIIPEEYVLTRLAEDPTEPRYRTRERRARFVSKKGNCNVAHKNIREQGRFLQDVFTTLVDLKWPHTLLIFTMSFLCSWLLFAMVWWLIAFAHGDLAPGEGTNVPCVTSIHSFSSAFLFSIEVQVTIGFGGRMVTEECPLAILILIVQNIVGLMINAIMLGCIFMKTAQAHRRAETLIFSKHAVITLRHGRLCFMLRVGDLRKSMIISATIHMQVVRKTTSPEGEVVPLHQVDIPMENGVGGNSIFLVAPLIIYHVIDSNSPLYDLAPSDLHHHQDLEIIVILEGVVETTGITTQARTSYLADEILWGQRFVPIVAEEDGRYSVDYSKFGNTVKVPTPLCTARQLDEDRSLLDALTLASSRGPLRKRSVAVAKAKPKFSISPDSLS
T1 sequence (Q09429 whole entry): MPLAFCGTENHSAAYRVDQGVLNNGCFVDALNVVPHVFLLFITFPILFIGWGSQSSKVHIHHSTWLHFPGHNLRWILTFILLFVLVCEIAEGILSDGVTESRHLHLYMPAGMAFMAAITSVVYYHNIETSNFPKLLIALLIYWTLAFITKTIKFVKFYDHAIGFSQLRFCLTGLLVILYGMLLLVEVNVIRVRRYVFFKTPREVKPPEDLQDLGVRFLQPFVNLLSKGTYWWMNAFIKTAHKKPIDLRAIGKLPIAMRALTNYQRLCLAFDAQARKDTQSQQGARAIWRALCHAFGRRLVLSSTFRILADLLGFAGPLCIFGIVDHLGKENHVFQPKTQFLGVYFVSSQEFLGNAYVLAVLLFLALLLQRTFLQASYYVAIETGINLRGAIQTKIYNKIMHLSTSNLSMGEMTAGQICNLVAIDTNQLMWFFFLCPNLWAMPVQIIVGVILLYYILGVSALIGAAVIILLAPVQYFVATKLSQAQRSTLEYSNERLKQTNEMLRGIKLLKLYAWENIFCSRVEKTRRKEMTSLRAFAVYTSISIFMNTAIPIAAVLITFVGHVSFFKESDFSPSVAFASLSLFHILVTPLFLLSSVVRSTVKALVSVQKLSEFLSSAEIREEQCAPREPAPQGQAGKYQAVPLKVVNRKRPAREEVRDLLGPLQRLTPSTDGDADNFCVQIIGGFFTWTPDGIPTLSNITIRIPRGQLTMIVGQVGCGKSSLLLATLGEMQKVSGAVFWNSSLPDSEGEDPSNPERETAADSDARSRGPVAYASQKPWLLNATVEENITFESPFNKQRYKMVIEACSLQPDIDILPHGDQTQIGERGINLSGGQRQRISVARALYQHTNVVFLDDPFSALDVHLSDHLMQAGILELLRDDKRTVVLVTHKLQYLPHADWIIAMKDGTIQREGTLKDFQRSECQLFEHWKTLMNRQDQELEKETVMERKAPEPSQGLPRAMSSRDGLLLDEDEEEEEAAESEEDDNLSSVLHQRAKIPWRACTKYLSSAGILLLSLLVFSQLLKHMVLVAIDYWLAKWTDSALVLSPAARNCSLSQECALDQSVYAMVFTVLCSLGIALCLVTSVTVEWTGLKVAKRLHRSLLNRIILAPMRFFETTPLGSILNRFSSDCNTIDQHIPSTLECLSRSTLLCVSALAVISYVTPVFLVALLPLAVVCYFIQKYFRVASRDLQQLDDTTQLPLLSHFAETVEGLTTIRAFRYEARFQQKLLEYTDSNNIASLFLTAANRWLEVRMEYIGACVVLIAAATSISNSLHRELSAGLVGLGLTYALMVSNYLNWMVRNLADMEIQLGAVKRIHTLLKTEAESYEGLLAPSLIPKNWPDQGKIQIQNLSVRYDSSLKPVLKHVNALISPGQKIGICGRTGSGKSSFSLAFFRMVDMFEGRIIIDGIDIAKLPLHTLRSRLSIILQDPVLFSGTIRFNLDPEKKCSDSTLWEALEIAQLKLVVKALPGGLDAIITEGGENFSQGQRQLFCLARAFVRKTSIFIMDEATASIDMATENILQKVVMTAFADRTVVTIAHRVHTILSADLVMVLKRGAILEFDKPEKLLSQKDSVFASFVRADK
T5 sequence (P70673 whole entry): as the sequence (P70673 whole entry) above
T5 sequence (Q09429 whole entry): as the sequence (Q09429 whole entry) above
T2 sequence (P70673 whole entry): as the sequence (P70673 whole entry) above
T2 sequence (Q09429 whole entry): as the sequence (Q09429 whole entry) above
neuronal type and pancreatic type of KATP channels (Kir6.2SUR1), sequence (Q14654 whole entry, the tested form may be a part): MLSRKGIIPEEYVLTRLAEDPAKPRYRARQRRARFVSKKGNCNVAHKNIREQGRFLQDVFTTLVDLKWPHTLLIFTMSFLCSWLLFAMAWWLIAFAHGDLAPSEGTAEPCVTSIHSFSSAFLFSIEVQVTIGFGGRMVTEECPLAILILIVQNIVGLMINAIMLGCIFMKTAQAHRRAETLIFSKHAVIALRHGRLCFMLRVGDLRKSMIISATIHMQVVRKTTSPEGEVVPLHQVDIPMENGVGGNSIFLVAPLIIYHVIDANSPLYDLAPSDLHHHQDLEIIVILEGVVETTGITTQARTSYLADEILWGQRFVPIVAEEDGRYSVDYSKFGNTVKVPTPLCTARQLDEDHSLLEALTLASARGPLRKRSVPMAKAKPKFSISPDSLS
neuronal type and pancreatic type of KATP channels (Kir6.2SUR1), sequence (Q09428 whole entry, the tested form may be a part): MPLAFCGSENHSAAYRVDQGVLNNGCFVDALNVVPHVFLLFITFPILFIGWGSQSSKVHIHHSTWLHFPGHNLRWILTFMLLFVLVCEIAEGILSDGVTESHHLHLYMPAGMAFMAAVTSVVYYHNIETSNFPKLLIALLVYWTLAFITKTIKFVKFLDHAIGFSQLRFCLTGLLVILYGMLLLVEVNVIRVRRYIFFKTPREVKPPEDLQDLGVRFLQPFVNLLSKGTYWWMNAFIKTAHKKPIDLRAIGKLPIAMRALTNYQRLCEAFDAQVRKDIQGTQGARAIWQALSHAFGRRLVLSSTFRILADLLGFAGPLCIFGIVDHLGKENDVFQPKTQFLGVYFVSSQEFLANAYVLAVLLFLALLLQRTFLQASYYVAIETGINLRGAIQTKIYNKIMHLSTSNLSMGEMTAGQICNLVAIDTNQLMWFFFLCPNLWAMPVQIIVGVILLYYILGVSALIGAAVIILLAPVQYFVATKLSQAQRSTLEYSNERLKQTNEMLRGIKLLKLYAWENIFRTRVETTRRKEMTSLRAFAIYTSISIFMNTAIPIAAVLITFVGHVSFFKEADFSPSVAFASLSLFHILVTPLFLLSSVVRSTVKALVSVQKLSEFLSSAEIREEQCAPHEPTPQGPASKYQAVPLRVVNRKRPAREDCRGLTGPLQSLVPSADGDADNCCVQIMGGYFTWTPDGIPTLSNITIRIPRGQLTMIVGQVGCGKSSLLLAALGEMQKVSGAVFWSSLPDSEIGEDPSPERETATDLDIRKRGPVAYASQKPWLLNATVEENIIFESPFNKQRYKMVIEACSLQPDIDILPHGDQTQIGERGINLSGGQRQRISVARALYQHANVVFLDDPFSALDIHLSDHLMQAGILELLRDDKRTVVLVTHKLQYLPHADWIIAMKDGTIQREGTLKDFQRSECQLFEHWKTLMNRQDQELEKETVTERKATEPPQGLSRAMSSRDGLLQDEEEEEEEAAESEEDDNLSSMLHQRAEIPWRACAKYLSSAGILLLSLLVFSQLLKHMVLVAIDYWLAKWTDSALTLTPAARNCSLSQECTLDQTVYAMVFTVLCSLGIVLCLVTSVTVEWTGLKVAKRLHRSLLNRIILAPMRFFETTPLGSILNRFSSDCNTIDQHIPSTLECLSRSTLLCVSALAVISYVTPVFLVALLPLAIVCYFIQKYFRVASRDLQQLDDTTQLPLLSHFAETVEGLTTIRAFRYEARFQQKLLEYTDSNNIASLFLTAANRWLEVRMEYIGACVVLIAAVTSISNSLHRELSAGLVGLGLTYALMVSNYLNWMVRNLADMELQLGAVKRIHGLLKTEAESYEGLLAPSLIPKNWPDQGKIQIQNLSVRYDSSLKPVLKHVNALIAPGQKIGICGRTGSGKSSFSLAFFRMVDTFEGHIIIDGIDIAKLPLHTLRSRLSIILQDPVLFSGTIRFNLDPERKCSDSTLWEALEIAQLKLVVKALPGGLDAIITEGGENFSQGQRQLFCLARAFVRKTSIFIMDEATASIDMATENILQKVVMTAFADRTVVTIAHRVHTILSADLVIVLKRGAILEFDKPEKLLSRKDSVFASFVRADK
T7 sequence (Q14654 whole entry): as the sequence (Q14654 whole entry, the tested form may be a part) above
T7 sequence (Q09428 whole entry): as the sequence (Q09428 whole entry, the tested form may be a part) above
T3 sequence (Q14654 whole entry, the tested form may be a part): as the sequence (Q14654 whole entry, the tested form may be a part) above
T3 sequence (Q09428 whole entry, the tested form may be a part): as the sequence (Q09428 whole entry, the tested form may be a part) above

Structure (SMILES): CCCCNC(=O)NS(=O)(=O)c1ccc(C)cc1 [tolbutamide]
- membrane potential after exposure to substance alone (SNc DA neurons; 100 μM, before: THB −46.5±0.9 (n=7), tolbutamide −44.4±1.6 (n=5)): −44.1±1.8 mV
- membrane potential after substance during persistent perfusion of rotenone ([1]; 1 μM rotenone, before: THB −61.7±1.3 (n=11), tolbutamide −61.6±1.2 (n=21), p<0.01): −52.5±1.1 mV
- altered membrane potential in the presence of rotenone ([1]; 1 μM substance): 0.2±0.1 mV
- altered membrane potential in the presence of rotenone ([1]; 10 μM substance): 4.4±0.3 mV
- altered membrane potential in the presence of rotenone ([1]; 100 μM substance): 9.1±0.5 mV
- Hill coefficient of concentration-effect relationship curve ([1]; membrane depolarization in the presence of rotenone): 2.1
- IC50 ([1]; membrane depolarization in the presence of rotenone, read-out: IC50 of concentration-effect relationship curve (block of KATP channels)): 10.4 µM
- rotenone-induced outward current amplitude after addition of substance (neuronal KATP channels; 100 mM substance as printed, sulpiride present, from 125.8±37.1 pA, p<0.01): 45.8±23.7 pA
- altered membrane potential on co-application with dopamine ([2]; difference THB vs tolbutamide p>0.05): 8.5±2.2 mV

Structure (SMILES): COc1cc2c(cc1OC)[C@@H]1Cc3ccc(OC)c(OC)c3CN1CC2 [l-THP, l-tetrahydropalmatine]
- altered membrane potential (depolarization) on rotenone-opened KATP channels, analog comparison [1]: 3.4±0.5 mV

Structure (SMILES): NCCc1ccc(O)c(O)c1 [dopamine]
- membrane potential hyperpolarization by dopamine ([2]; 10 μM dopamine bath-application, 10 neurons, p<0.01): 10.5±1.1 mV

Structure (SMILES): COc1cc2c(cc1O)[C@@H]1Cc3ccc(O)c(OC)c3CN1CC2 [l-SPD, l-stepholidine]
- altered membrane potential (depolarization) on rotenone-opened KATP channels, analog comparison [1]: 8.4±1.4 mV

Structure (SMILES): CCN1CCCC1CNC(=O)c1cc(S(N)(=O)=O)ccc1OC (centres unmarked) [sulpiride]
- effect of D2 receptor antagonist alone on resting membrane potential (SNc DA neurons; exposure alone, neuronal firing rate was increased): did not clearly alter resting membrane potential

Structure (SMILES): C=C(C)[C@H]1Cc2c(ccc3c2O[C@@H]2COc4cc(OC)c(OC)cc4[C@@H]2C3=O)O1 [rotenone]
- membrane potential after perfusion of rotenone (SNc DA neurons; 1 μM rotenone for 1-3 min, averaged resting membrane potential −46.1±0.9 mV, 30 neurons, p<0.001): −61.1±0.9 mV
- rotenone-induced outward current amplitude (neuronal KATP channels; in the presence of sulpiride): 125.8±37.1 pA

Structure (SMILES): CC(C)NC(C)(C)C(C)C [Ipt, Iptakalim]
- effect on whole-cell current of Kir6.2/SUR1 (Kir6.2/SUR1): blocks β-cell-type KATP channels
- effect on whole-cell current of Kir6.1/SUR2B (Kir6.1/SUR2B): opens cardiovascular types of KATP channels
- concentration at which Ipt weakly opens cardiac KATP channels [3]: < 10 µM
- insulin secretion after bath application (rat pancreatic islets): 34.5±1.8 pg/islet/min
- effect on β-cell KATP channel-mediated whole-cell currents [4]: reduced these β-cell KATP channel-mediated currents
- concentration at which Ipt blocks neuronal type and pancreatic type of KATP channels [5]: > 30 µM
- effect on whole-cell current of Kir6.2/SUR2A (Kir6.2/SUR2A): opens cardiovascular types of KATP channels
- normalized NPo value (Kir6.2SUR1 KATP channels): 0.50±0.02
- concentration at which Ipt mainly opens vascular KATP channels [6]: < 10 µM
- effect on single channel activities opened by ATP free solution [7]: inhibited these single channel activities

Structure (SMILES): CC1=Nc2ccc(Cl)cc2S(=O)(=O)N1 [dizoxide]
- effect of KATP channel opener on membrane potential (SNc DA neurons; 300 μM (FIG. 3B legend)): hyperpolarized membrane potential
